According to BindingDB's records for doi:10.7270/Q2N58JV3 (Burnham Center For Chemical Genomics, 2010):
pIC50: −log10 of the molar value.

Target: Polyadenylate-binding protein 1 (Homo sapiens, UniProt P11940)
Experiment: PABP inhibition in translation initiation, SAR follow-up (AID 435018)

Sequence of Polyadenylate-binding protein 1 (P11940 whole entry): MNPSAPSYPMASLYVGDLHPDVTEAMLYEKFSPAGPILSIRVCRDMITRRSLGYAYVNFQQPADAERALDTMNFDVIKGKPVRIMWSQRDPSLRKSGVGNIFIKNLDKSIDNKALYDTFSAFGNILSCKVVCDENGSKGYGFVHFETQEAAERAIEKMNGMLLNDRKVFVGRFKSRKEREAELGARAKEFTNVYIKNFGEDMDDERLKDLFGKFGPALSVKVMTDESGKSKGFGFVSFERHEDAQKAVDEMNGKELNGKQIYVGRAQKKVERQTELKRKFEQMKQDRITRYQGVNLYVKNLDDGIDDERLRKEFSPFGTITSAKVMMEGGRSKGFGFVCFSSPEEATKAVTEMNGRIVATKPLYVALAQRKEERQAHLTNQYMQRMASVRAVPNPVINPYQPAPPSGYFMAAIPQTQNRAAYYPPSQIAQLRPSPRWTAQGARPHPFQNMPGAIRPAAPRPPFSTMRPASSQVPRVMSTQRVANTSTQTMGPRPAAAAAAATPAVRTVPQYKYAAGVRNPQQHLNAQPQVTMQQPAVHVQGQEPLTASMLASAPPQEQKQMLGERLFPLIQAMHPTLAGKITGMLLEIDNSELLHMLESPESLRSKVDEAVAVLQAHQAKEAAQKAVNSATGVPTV

COc1cc([CH+][N-]NC(=O)c2ccc(O)cc2)ccc1OCC(=O)Nc1cccc([N+](=O)[O-])c1 was tested, and the pIC50 was < 4.00.
